# Columns and labels:
# [1] = tested on: SETVI Setaria viridis (green foxtails); experiment: Glasshouse weed kill, adjuvant with fluazifop-P-butyl, track sprayer; format: in vivo; details: adjuvant 0.2% v/v, 21 days after treatment; for ED90 SETVI (concentration required to provide 90% weed kill): fluazifop-p-butyl rate, 200 l/ha; for Mean Activity (% weed kill) SETVI: with fluazifop-p-butyl, mean of 3 replicates and 4 rates
# Experimental: (§1) An agrochemical composition was prepared containing 0.2% v/v of an adjuvant in a track sprayer containing fluazifop P butyl emulsified at one of four different concentrations. Weeds which had been grown to the 2.3 leaf stage were sprayed using volumes of 200 l/ha. Each sample was replicated three times. The following weed species were tested:— • AVEFA Avena fatua (wild oats) • LOLRI Lolium rigidum (rye grass) • TRZAW Triticum aestivum (wheat) • SETVI Setaria viridis (green foxtails)
# (§2) Activity was measured 21 days after treatment and was compared with a standard composition containing only fluazifop-p-butyl. The concentration required to provide 90% weed kill was calculated and is given in TABLE 1 below together with the mean ED90 across the species.
# (§3) Further adjuvants of the present invention were tested for activity in combination with fluzifop-p-butyl. Activity (% weed kill) was measured 21 days after treatment and is given as a mean of 3 replicates and 4 rates of fluazifop-p-butyl. All adjuvants were applied at 0.2% v/v. The results are given in Table 2 in comparison with a corresponding composition containing no adjuvant.
# [2] = tested on: LOLRI Lolium rigidum (rye grass); experiment: as above; format: in vivo; details: adjuvant 0.2% v/v, 21 days after treatment; for ED90 LOLRI (concentration required to provide 90% weed kill): fluazifop-p-butyl rate, 200 l/ha; for Mean Activity (% weed kill) LOLRI: with fluazifop-p-butyl, mean of 3 replicates and 4 rates
# Experimental: as §1, §2, §3
# [3] = tested on: TRZAW Triticum aestivum (wheat); experiment: as above; format: in vivo; details: adjuvant 0.2% v/v, 21 days after treatment; for ED90 TRZAW (concentration required to provide 90% weed kill): fluazifop-p-butyl rate, 200 l/ha; for Mean Activity (% weed kill) TRZAW: with fluazifop-p-butyl, mean of 3 replicates and 4 rates
# Experimental: as §1, §2, §3
# [4] = tested on: AVEFA Avena fatua (wild oats); experiment: as above; format: in vivo; details: adjuvant 0.2% v/v, 21 days after treatment; for ED90 AVEFA (concentration required to provide 90% weed kill): fluazifop-p-butyl rate, 200 l/ha; for Mean Activity (% weed kill) AVEFA: with fluazifop-p-butyl, mean of 3 replicates and 4 rates
# Experimental: as §1, §2, §3
# [5] = tested on: AVEFA, LOLRI, TRZAW, SETVI; experiment: Weed kill with fluazifop-P-butyl, mean across the species; format: in vivo; details: adjuvant 0.2% v/v, 21 days after treatment; for Mean ED90 across the species: fluazifop-p-butyl rate; for Mean Activity (% weed kill) Mean over all species: with fluazifop-p-butyl
# Experimental: as §1, §2, §3
# AVEFA = experiment: Adjuvant with thin leaved grass herbicide (oxadiazepine pivalate ester), track sprayer; format: in vivo, Avena fatua; details: 200 l/ha, average of two replicates
# Experimental: (§4) The indicated adjuvants were evaluated in combination with a thin leaved grass herbicide 2,2,-dimethyl-propionic acid-8-(2,6-diethyl-4-methyl-phenyl)-9-oxo-1,2,4,5-tetrahydro-9H-pyrazolo[1,2-d][1,4,5]oxadiazepine-7-yl ester. The weeds were sprayed at the growth stages shown in the table with pesticide emulsions using a track sprayer and volumes of 200 l/ha. The adjuvants were added at 5% v/v as tank mix additives. Each result is the average of two replicates.
# [6] = tested on: APESV (Apera Spica-Venti); experiment: as above; format: in vivo; details: 200 l/ha, average of two replicates
# Experimental: as §4
# ALOMY = experiment: as above; format: in vivo; details: 200 l/ha, average of two replicates
# Experimental: as §4
# [7] = tested on: PHAPA (Phalaris paradoxa); experiment: as above; format: in vivo; details: 200 l/ha, average of two replicates
# Experimental: as §4
# LOLMU = experiment: as above; format: in vivo; details: 200 l/ha, average of two replicates
# Experimental: as §4
# [8] = tested on: ALOMY, APESV, AVEFA, LOLMU, PHAPA; experiment: Adjuvant with thin leaved grass herbicide, mean of all weeds; format: in vivo
# Experimental: as §4
# Puccinia recondita = experiment: Glasshouse disease control with azoxystrobin on inoculated barley; format: in vivo; details: adjuvant 0.5% v/v tank mix, four replicates
# Experimental: The results quoted are the mean percentage disease control from four replicates on barley inoculated with Puccinia recondita. The adjuvant was added as a 0.5% v/v tank mix.
substance,measurement,setting,value
Oleyl 10 Propylene Oxide End-Capped butyl ether [Oleyl 10P Bu Ether],ED90 SETVI (concentration required to provide 90% weed kill),[1],16.7 g/ha
same,Mean Activity (% weed kill) SETVI,[1],84.2%
same,ED90 LOLRI (concentration required to provide 90% weed kill),[2],34.9 g/ha
same,Mean Activity (% weed kill) LOLRI,[2],54.4%
same,ED90 TRZAW (concentration required to provide 90% weed kill),[3],29.2 g/ha
same,Mean Activity (% weed kill) TRZAW,[3],45.8%
same,ED90 AVEFA (concentration required to provide 90% weed kill),[4],19.8 g/ha
same,Mean Activity (% weed kill) AVEFA,[4],71.4%
same,Mean ED90 across the species,[5],25.2 g/ha
same,Mean Activity (% weed kill) Mean over all species,[5],64%
Oleic Acid 20 Ethylene Oxide End-Capped Methyl Ether [Oleyl 20 EO Me ether],Mean Activity (% weed kill) SETVI,[1],74.6%
same,Mean Activity (% weed kill) LOLRI,[2],54.9%
same,Mean Activity (% weed kill) TRZAW,[3],52.1%
same,Mean Activity (% weed kill) AVEFA,[4],72.3%
same,Mean Activity (% weed kill) Mean over all species,[5],63%
Isostearyl (2-hexyl-dodecan-1-ol) 20 Propylene Oxide [Isostearyl 20 PO],Mean Activity (% weed kill) SETVI,[1],80.9%
same,Mean Activity (% weed kill) LOLRI,[2],52.5%
same,Mean Activity (% weed kill) TRZAW,[3],37.3%
same,Mean Activity (% weed kill) AVEFA,[4],58%
same,Mean Activity (% weed kill) Mean over all species,[5],57%
Oleyl 10 Ethylene Oxide End-Capped Butyl Ether [Oleyl 10 EO Bu ether],AVEFA activity,AVEFA; herbicide rate 5 gai/ha,89
same,AVEFA activity,AVEFA; herbicide rate 7.5 gai/ha,98
same,AVEFA activity,AVEFA; herbicide rate 10 gai/ha,99
same,APESV activity,[6]; herbicide rate 5 gai/ha,53
same,APESV activity,[6]; herbicide rate 7.5 gai/ha,97
same,APESV activity,[6]; herbicide rate 10 gai/ha,98
same,ALOMY activity,ALOMY; herbicide rate 5 gai/ha,53
same,ALOMY activity,ALOMY; herbicide rate 7.5 gai/ha,75
same,ALOMY activity,ALOMY; herbicide rate 10 gai/ha,88
same,PHAPA activity,[7]; herbicide rate 5 gai/ha,93
same,PHAPA activity,[7]; herbicide rate 7.5 gai/ha,96
same,PHAPA activity,[7]; herbicide rate 10 gai/ha,99
same,LOLMU activity,LOLMU; herbicide rate 5 gai/ha,91
same,LOLMU activity,LOLMU; herbicide rate 7.5 gai/ha,98
same,LOLMU activity,LOLMU; herbicide rate 10 gai/ha,93
same,Mean All Weeds,[8]; herbicide rate 5 gai/ha,76
same,Mean All Weeds,[8]; herbicide rate 7.5 gai/ha,93
same,Mean All Weeds,[8]; herbicide rate 10 gai/ha,95
same,Mean Activity (% weed kill) SETVI,[1],85.6%
same,Mean Activity (% weed kill) LOLRI,[2],56.5%
same,Mean Activity (% weed kill) TRZAW,[3],56%
same,Mean Activity (% weed kill) AVEFA,[4],73.3%
same,Mean Activity (% weed kill) Mean over all species,[5],68%
Oleyl 20 Propylene Oxide End-Capped butyl ether [Oleyl 20P Bu Ether],ED90 SETVI (concentration required to provide 90% weed kill),[1],19 g/ha
same,Mean Activity (% weed kill) SETVI,[1],75.9%
same,ED90 LOLRI (concentration required to provide 90% weed kill),[2],48.6 g/ha
same,Mean Activity (% weed kill) LOLRI,[2],46%
same,ED90 TRZAW (concentration required to provide 90% weed kill),[3],32.2 g/ha
same,Mean Activity (% weed kill) TRZAW,[3],38.8%
same,ED90 AVEFA (concentration required to provide 90% weed kill),[4],23.4 g/ha
same,Mean Activity (% weed kill) AVEFA,[4],67.4%
same,Mean ED90 across the species,[5],30.8 g/ha
same,Mean Activity (% weed kill) Mean over all species,[5],57%
Isostearyl (2-hexyl-dodecan-1-ol) 10 Propylene Oxide [Isostearyl 10 PO],Mean Activity (% weed kill) SETVI,[1],81.8%
same,Mean Activity (% weed kill) LOLRI,[2],51.8%
same,Mean Activity (% weed kill) TRZAW,[3],53.8%
same,Mean Activity (% weed kill) AVEFA,[4],67.8%
same,Mean Activity (% weed kill) Mean over all species,[5],64%
Oleyl 10 Propylene Oxide [Oleyl 10PO],AVEFA activity,AVEFA; herbicide rate 5 gai/ha,70
same,AVEFA activity,AVEFA; herbicide rate 7.5 gai/ha,96
same,AVEFA activity,AVEFA; herbicide rate 10 gai/ha,98
same,APESV activity,[6]; herbicide rate 5 gai/ha,23
same,APESV activity,[6]; herbicide rate 7.5 gai/ha,89
same,APESV activity,[6]; herbicide rate 10 gai/ha,98
same,ALOMY activity,ALOMY; herbicide rate 5 gai/ha,55
same,ALOMY activity,ALOMY; herbicide rate 7.5 gai/ha,70
same,ALOMY activity,ALOMY; herbicide rate 10 gai/ha,92
same,PHAPA activity,[7]; herbicide rate 5 gai/ha,23
same,PHAPA activity,[7]; herbicide rate 7.5 gai/ha,98
same,PHAPA activity,[7]; herbicide rate 10 gai/ha,99
same,LOLMU activity,LOLMU; herbicide rate 5 gai/ha,33
same,LOLMU activity,LOLMU; herbicide rate 7.5 gai/ha,60
same,LOLMU activity,LOLMU; herbicide rate 10 gai/ha,80
same,Mean All Weeds,[8]; herbicide rate 5 gai/ha,41
same,Mean All Weeds,[8]; herbicide rate 7.5 gai/ha,83
same,Mean All Weeds,[8]; herbicide rate 10 gai/ha,93
same,Mean Activity (% weed kill) SETVI,[1],84.6%
same,Mean Activity (% weed kill) LOLRI,[2],55.9%
same,Mean Activity (% weed kill) TRZAW,[3],54.3%
same,Mean Activity (% weed kill) AVEFA,[4],72.6%
same,Mean Activity (% weed kill) Mean over all species,[5],67%
Oleyl 20 Propylene Oxide [Oleyl 20 PO],Mean Activity (% weed kill) SETVI,[1],80.4%
same,Mean Activity (% weed kill) LOLRI,[2],36.3%
same,Mean Activity (% weed kill) TRZAW,[3],53.3%
same,Mean Activity (% weed kill) AVEFA,[4],70.6%
same,Mean Activity (% weed kill) Mean over all species,[5],60%
Oleic Acid 10 Ethylene Oxide End-Capped Methyl Ether [Oleic 10E Me Ether],ED90 SETVI (concentration required to provide 90% weed kill),[1],15.8 g/ha
same,Mean Activity (% weed kill) SETVI,[1],78.4%
same,ED90 LOLRI (concentration required to provide 90% weed kill),[2],34.8 g/ha
same,Mean Activity (% weed kill) LOLRI,[2],56.2%
same,ED90 TRZAW (concentration required to provide 90% weed kill),[3],28.4 g/ha
same,Mean Activity (% weed kill) TRZAW,[3],56.1%
same,ED90 AVEFA (concentration required to provide 90% weed kill),[4],16.7 g/ha
same,Mean Activity (% weed kill) AVEFA,[4],71.3%
same,Mean ED90 across the species,[5],23.9 g/ha
same,Mean Activity (% weed kill) Mean over all species,[5],66%
Oleyl 20 Ethylene Oxide End-Capped Butyl Ether [Oleyl 20E Bu Ether],ED90 SETVI (concentration required to provide 90% weed kill),[1],16.5 g/ha
same,Mean Activity (% weed kill) SETVI,[1],78.1%
same,ED90 LOLRI (concentration required to provide 90% weed kill),[2],27.5 g/ha
same,Mean Activity (% weed kill) LOLRI,[2],68.8%
same,ED90 TRZAW (concentration required to provide 90% weed kill),[3],21.4 g/ha
same,Mean Activity (% weed kill) TRZAW,[3],59.3%
same,ED90 AVEFA (concentration required to provide 90% weed kill),[4],19.5 g/ha
same,Mean Activity (% weed kill) AVEFA,[4],76.1%
same,Mean ED90 across the species,[5],21.2 g/ha
same,Mean Activity (% weed kill) Mean over all species,[5],71%
same,mean percentage disease control,Puccinia recondita; Azoxystrobin 0 mgai/l,5.9%
same,mean percentage disease control,Puccinia recondita; Azoxystrobin 0.625 mgai/l (Quadris 25 SC),66.5%
same,mean percentage disease control,Puccinia recondita; Azoxystrobin 1.25 mgai/l (Quadris 25 SC),82.7%
same,mean percentage disease control,Puccinia recondita; Azoxystrobin 2.5 mgai/l (Quadris 25 SC),90.5%
